Ends that are not written are not given here.
How the values were obtained:
[1] = system: mCherry fluorescent-expressing MDA-MB-231 cells; assay: Orthotopic xenograft of mCherry MDA-MB-231 cells in NOD-SCID mice; type: in vivo, mouse; conditions: 40 mg/kg peptide every day, intraperitoneal
Source text: For the animal model, MB‐Luc2 cells were mixed with human BCAFs xenografts: 1 × 10^5 MB‐Luc2 were mixed with either 1 × 10^5 BCAFs carrying a control knockdown vector (shCtl‐BCAFs), or 1 × 10^5 BCAFs carrying a CEBPD knockdown vector (shCD‐BCAFs), or 1 × 10^5 BCAFs carrying a PTX3 knockdown vector (shP‐BCAFs). The cell mixtures were inoculated into the mammary fat pads of NOD‐SCID mice. In peptide treatment experiments, NOD‐SCID mice were orthotopically inoculated with 1 × 10^6 mCherry fluorescent‐expressing MDA‐MB‐231 cells into the mammary fat pad. Similarly, 5 × 10^5 mCherry fluorescent‐expressing 4T1 cells were orthotopically inoculated into BALB/c mice in the mammary fat pad. Once tumours reached to the mean of 50 mm^3, the mice were administered 40 mg/kg of peptides RI37, GI40, P2rdAD9 or P12rdGR9 every day by intraperitoneal injection. For paclitaxel treatment, 30 mg/kg of paclitaxel was administered to the experimental mice once a week. […] The images of in vivo bioluminescence and metastasis quantification of the lung and brain were analysed by a Xenogen IVISR Spectrum Noninvasive Quantitative Molecular Imaging System. […] After that, tumour volume was mathematically determined by using the standard formula: […], where l represents the length and w represents the width of the tumour. […] After, the number of nodules on the lung surface was measured. […]

[2] = system: AKT, NF-κB and ERK1/2 activity in MDA-MB-231 cells; assay: Western blot of PTX3-induced signalling; type: cell-based, human; conditions: with PTX3 treatment
Source text: Experimental cells were lysed with radioimmunoprecipitation assay buffer (RIPA) buffer. Specific antibodies including PTX3 (ab90806; Abcam), CEBPD (sc‐636; Santa Cruz Biotechnology), CD44 (GTX83114; GeneTex), α‐tubulin (T6199; Sigma), P84 (GTX70220; GeneTex), RAC1 (GTX100761; GeneTex), CDC42 (GTX100904; GeneTex), AKT (GTX121937; GeneTex), Phospho‐AKT (Ser473) (GTX128414; GeneTex), Phospho‐NF‐κB p65 (Ser536) (#93H1; Cell Signaling), RhoA (ab68826; Abcam), NF‐κB p65 (#3033; Cell Signaling), Phospho‐p38 MAPK (Thr180/Tyr182) (#9211; Cell Signaling), PTEN (ab32199; Abcam), p38 MAPK (#9212; Cell Signaling), Phospho‐SAPK/JNK (Thr183/Tyr185) (#4668; Cell Signaling), Phospho‐p70 S6 Kinase (Thr389) (MABS82; Millipore), Phospho‐PAK1 (Ser199/Ser204) (09‐258; Millipore), SAPK/JNK (#9252; Cell Signaling), Phospho‐p44/42 MAPK (ERK1/2) (Thr202/Tyr204) (#4377; Cell Signaling) and p44/42 MAPK (ERK1/2) (#9102; Cell Signaling) were used for Western blotting.

MDA-MB-231 cells = assay: Sphere formation assay; type: cell-based, human; conditions: MDA-MB-231 cells, with PTX3 treatment
Protocol: Note that 5 × 10^3 MDA‐MB‐231 cells were seeded in ultralow attachment plates (Corning) per well. Then, cultured in conditional medium containing the treatment of TGF‐β1, PTX3, PTX3NA, RI37, GI40, IgG1κ, PTX3 Ab‐10 or PTX3 Ab‐49 and the DMEM/F12 (Gibco) added with B27 (Invitrogen), 10 ng/ml bFGF (Peprotech) and 20 ng/ml EGF (Abcam). Number of spheres was calculated by microscope after 2 weeks.

RI37: peptide, PTX3 amino acids 200–236 (RPMRLESFSACIWVKATDVLNKTILFSYGTKRNPYEI; also: biotin, position not given here)
suppressed: tumour growth and metastasis [1] | PTX3-induced AKT, NF-κB and ERK1/2 activity (signalling pathways) [2] | PTX3-induced sphere-forming ability (stemness) (MDA-MB-231 cells)

GI40: peptide, PTX3 amino acids 320–359 (GGGFDETLAFSGRLTGFNIWDSVLSNEEIRETGGAESCHI; also: biotin, position not given here)
suppressed: tumour growth and metastasis [1] | PTX3-induced AKT, NF-κB and ERK1/2 activity (signalling pathways) [2] | PTX3-induced sphere-forming ability (stemness) (MDA-MB-231 cells)

From PMC8797470, “Disruption of the pentraxin 3/CD44 interaction as an efficient therapy for triple‐negative breast cancers” (Clinical and Translational Medicine, 2022)
